Results: ChEMBL document CHEMBL5338738, “Discovery of Novel Sesquiterpene Lactone Derivatives as Potent PKM2 Activators for the Treatment of Ulcerative Colitis” (J Med Chem, 2023)
The source made the active and inactive calls. No cut-off for these calls is given here.

Legend:
[1] = Half life in Sprague-Dawley rat at 75 mg/kg,po and measured upto 24 hrs by LC-MS/MS analysis; assay type: ADME, organism-based; conditions: in vivo
[2] = test system: CD4+ve Th; assay: (§1) Inhibition of Th17 cells differentiation in anti-CD3/CD28 stimulated C57BL/6 mouse mesenteric lymph node CD4+ve Th cells assessed as decrease in total PKM2 expression at 0.1 to 3 uM incubated for 96 hrs in presence of recombinant human TGF-beta, recombinant mouse IL-6 and recombinant mouse IL-23 by Western blot analysis; assay type: functional, cell-based; conditions: dose 0.1-3 µM
[3] = test system: Mus musculus; assay: Anti-colitis activity against TNBS-induced ulcerative colitis BALB/c mouse model assessed as increase in colon length at 12.5 to 25 mg/kg, po for consecutive 7 days; assay type: functional, organism-based; conditions: dose 12.5-25 mg/kg, time 7.0 day
[4] = MRT(t) in Sprague-Dawley rat at 8 mg/kg,iv and measured upto 24 hrs by LC-MS/MS analysis; assay type: ADME, organism-based; conditions: in vivo
[5] = test system: CD4+ve Th; assay: Cytotoxicity against C57BL/6 mouse mesenteric lymph node CD4+ve Th cells assessed as reduction in cell proliferation at 0.3 to 3 uM incubated for 96 hrs by CCK-8 assay; assay type: toxicity, cell-based; conditions: dose 0.3-3 µM
[6] = test system: Mus musculus; assay: Anti-colitis activity against TNBS-induced ulcerative colitis BALB/c mouse model assessed as decrease in mucosal damage in colon at 12.5 to 25 mg/kg, po for consecutive 7 days by H and E staining based microscopy; assay type: functional, organism-based; conditions: dose 12.5-25 mg/kg, time 7.0 day
[7] = test system: CD4+ve Th; assay: as §1, with “aerobic glycolysis” for “Th17 cells differentiation”, “downregulation of PFK1 protein” for “decrease in total PKM2”, “expression level” for “expression”, “0.3” for “0.1”; assay type: functional, cell-based; conditions: dose 0.3-3 µM
[8] = Half life in Sprague-Dawley rat at 8 mg/kg,iv and measured upto 24 hrs by LC-MS/MS analysis; assay type: ADME, organism-based; conditions: in vivo
[9] = test system: Mus musculus; assay: Anti-colitis activity against DSS-induced ulcerative colitis C57BL/6 mouse model assessed as downregulation of IL10 mRNA expression level in colon at 6.25 to 25 mg/kg, po for 10 days consecutively by qPCR assay; assay type: functional, organism-based; conditions: dose 6.25-25 mg/kg, time 10.0 day
[10] = test system: Mus musculus; assay: Anti-colitis activity against DSS-induced ulcerative colitis C57BL/6 mouse model assessed as reduction in histological score in colon at 12.5 to 25 mg/kg, po for 10 days consecutively by H and E staining based microscopic analysis; assay type: functional, organism-based; conditions: dose 12.5-25 mg/kg, time 10.0 day
[11] = test system: Mus musculus; assay: Anti-colitis activity against DSS-induced ulcerative colitis C57BL/6 mouse model assessed as downregulation of IL17a mRNA expression level in spleen at 12.5 to 25 mg/kg, po for 10 days consecutively by qPCR assay; assay type: functional, organism-based; conditions: dose 12.5-25 mg/kg, time 10.0 day
[12] = Cmax in Sprague-Dawley rat at 75 mg/kg,po and measured upto 24 hrs by LC-MS/MS analysis; assay type: ADME, organism-based; set-up: dose 75 mg/kg, time < 24 hrs, route po; conditions: in vivo
[13] = Inhibition of Treg cells differentiation in anti-CD3/CD28 stimulated C57BL/6 mouse mesenteric lymph node CD4+ve Th cells assessed as decrease in proportion of Foxp3-positive Treg cells at 0.1 uM incubated for 96 hrs in presence of recombinant human TGF-beta by flow cytometry (Rvb= 21.1%); assay type: functional; conditions: C57BL/6, CD4+ve Th
[14] = test system: Mus musculus; assay: Anti-colitis activity against DSS-induced ulcerative colitis C57BL/6 mouse model assessed as decrease in IL-6 mRNA expression level in colon at 12.5 to 25 mg/kg, po for 10 days consecutively by qPCR analysis; assay type: functional, organism-based; conditions: dose 12.5-25 mg/kg, time 10.0 day
[15] = Inhibition of Treg cells differentiation in anti-CD3/CD28 stimulated C57BL/6 mouse mesenteric lymph node CD4+ve Th cells assessed as decrease in proportion of Foxp3-positive Treg cells at 3 uM incubated for 96 hrs in presence of recombinant human TGF-beta by flow cytometry (Rvb= 21.1%); assay type: functional; conditions: C57BL/6, CD4+ve Th
[16] = Tmax in Sprague-Dawley rat at 75 mg/kg,po and measured upto 24 hrs by LC-MS/MS analysis; assay type: ADME, organism-based; conditions: in vivo
[17] = (§2) Inhibition of Treg cells differentiation in anti-CD3/CD28 stimulated C57BL/6 mouse mesenteric lymph node CD4+ve Th cells assessed as decrease in proportion of Foxp3-positive Treg cells at 0.3 uM incubated for 96 hrs in presence of recombinant human TGF-beta by flow cytometry (Rvb= 21.1%); assay type: functional; conditions: C57BL/6, CD4+ve Th
[18] = Microsomal stability in rat liver microsomes assessed as intrinsic clearance; assay type: ADME, Microsome; conditions: read-out: CLH
[19] = test system: CD4+ve Th; assay: as §1, with “downregulation of IL21 mRNA” for “decrease in total PKM2”, “expression level” for “expression”, “qPCR” for “Western blot”; assay type: functional, cell-based; conditions: dose 0.1-3 µM
[20] = test system: CD4+ve Th; assay: as §1, with “downregulation of RORC mRNA” for “decrease in total PKM2”, “expression level” for “expression”, “qPCR” for “Western blot”; assay type: functional, cell-based; conditions: dose 0.1-3 µM
[21] = test system: CD4+ve Th; assay: as §1, with “downregulation of IL22 mRNA” for “decrease in total PKM2”, “expression level” for “expression”, “qPCR” for “Western blot”; assay type: functional, cell-based; conditions: dose 0.1-3 µM
[22] = test system: CD4+ve Th; assay: as §1, with “downregulation of IL23r mRNA” for “decrease in total PKM2”, “expression level” for “expression”, “qPCR” for “Western blot”; assay type: functional, cell-based; conditions: dose 0.1-3 µM
[23] = test system: CD4+ve Th; assay: Inhibition of aerobic glycolysis in anti-CD3/CD28 stimulated C57BL/6 mouse mesenteric lymph node CD4+ve Th cells assessed as reduction in glucose uptake level at 0.3 to 3 uM incubated for 96 hrs in presence of recombinant human TGF-beta, recombinant mouse IL-6 and recombinant mouse IL-23 by NBDG staining based immunofluorescence analysis; assay type: functional, cell-based; conditions: dose 0.3-3 µM
[24] = MRT(t) in Sprague-Dawley rat at 75 mg/kg,po and measured upto 24 hrs by LC-MS/MS analysis; assay type: ADME, organism-based; conditions: in vivo
[25] = test system: Mus musculus; assay: Anti-colitis activity against DSS-induced ulcerative colitis C57BL/6 mouse model assessed as downregulation of IL17a mRNA expression level in mesenteric lymph nodes at 12.5 to 25 mg/kg, po for 10 days consecutively by qPCR assay; assay type: functional, organism-based; conditions: dose 12.5-25 mg/kg, time 10.0 day
[26] = test system: Mus musculus; assay: Anti-colitis activity against TNBS-induced ulcerative colitis BALB/c mouse model assessed as decrease in crypt necrosis in colon at 12.5 to 25 mg/kg, po for consecutive 7 days by H and E staining based microscopy; assay type: functional, organism-based; conditions: dose 12.5-25 mg/kg, time 7.0 day
[27] = as §2, with “Th17” for “Treg”, “IL17A-positive Th17” for “Foxp3-positive Treg”, “TGF-beta, recombinant mouse IL-6 and recombinant mouse IL-23” for “TGF-beta”, “16.7%)” for “21.1%)”; assay type: functional; conditions: C57BL/6, CD4+ve Th
[28] = test system: Mus musculus; assay: Anti-colitis activity against DSS-induced ulcerative colitis C57BL/6 mouse model assessed as downregulation of RORC mRNA expression level in colon at 12.5 to 25 mg/kg, po for 10 days consecutively by qPCR assay; assay type: functional, organism-based; conditions: dose 12.5-25 mg/kg, time 10.0 day
[29] = test system: Mus musculus; assay: Anti-colitis activity against DSS-induced ulcerative colitis C57BL/6 mouse model assessed as downregulation of RORC mRNA expression level in spleen at 12.5 to 25 mg/kg, po for 10 days consecutively by qPCR assay; assay type: functional, organism-based; conditions: dose 12.5-25 mg/kg, time 10.0 day
[30] = test system: CD4+ve Th; assay: Inhibition of Treg cells differentiation in anti-CD3/CD28 stimulated C57BL/6 mouse mesenteric lymph node CD4+ve Th cells assessed as change in Foxp3 mRNA expression level cells at 0.1 to 3 uM incubated for 96 hrs in presence of recombinant human TGF-beta by qPCR analysis; assay type: functional, cell-based; conditions: dose 0.1-3 µM

## C=C1C(=O)O[C@H]2[C@H]1CC[C@@]1(C)[C@@H](CC[C@@]3(C)O[C@@H]23)C1(F)F
[1]
  half-life: 480 min
[2]
  inhibition: Active
[3]
  Activity: Active
[4]
  MRT last at 24 h: 5 h
[5]
  Activity: Non-Toxic
[6]
  Activity: Active
[7]
  inhibition: Active
[8]
  half-life: 120 min
[9]
  Activity: inactive
[10]
  Activity: Active
[11]
  Activity: Active
[12]
  Cmax: 82 ng/mL
[13]
  Foxp3+ cells at 0.1 µM: 20.3%
[14]
  Activity: Active
[15]
  Foxp3+ cells at 3 µM: 20.8%
[16]
  Tmax: 6 h
[17]
  Foxp3+ cells at 0.3 µM: 18.4%
[18]
  microsomal CLint: 110 µL/min/mg
[19]
  inhibition: Active
[20]
  inhibition: Active
[21]
  inhibition: Active
[22]
  inhibition: Active
[23]
  inhibition: Active
[24]
  MRT last at 24 h: 12.4 h
[25]
  Activity: Active
[26]
  Activity: Active
[27]
  IL17A+ cells at 0.3 µM: 12.4%
[28]
  Activity: Active
[29]
  Activity: Active
[30]
  inhibition: inactive
